These are literature values, as cited in patent publication US10493079B2, “Stable carfilzomib formulations” (Cipla Limited, priority 2016, dated 2019).

Each structure is given as a SMILES string.

Turning to `CC(C)C[C@H](NC(=O)[C@H](CCc1ccccc1)NC(=O)CN1CCOCC1)C(=O)N[C@@H](Cc1ccccc1)C(=O)N[C@@H](CC(C)C)C(=O)[C@@]1(C)CO1` [carfilzomib], the aqueous solubility entry is reported as “extremely low”.
